Data published in patent US20260297105A1, “RAF-MEK PROTEIN COMPLEX MODULATORS AND METHODS OF USE THEREOF” (GANDEEVA THERAPEUTICS, INC., priority 2023, published 2026).
Where two headings read alike, the source gives them in different places.

Key:
MEK1 = molecular target: T1, MEK1 (Homo sapiens, UniProt Q02750); assay: MEK1 kinase cascade assay (ADP-Glo), inhibition of MEK1 kinase activity; type: biochemical; details: 25 nM BRAF, 6.25 nM MEK1, 0.5 μM ERK, 1 mM ATP; 20 min preincubation, 1 hr at 25° C.; read-out: BRAF ADP Glo kinase assay V3 (IC50)
T1 construct: purchased SignalChem M02-14H
T1 sequence (Q02750 whole entry): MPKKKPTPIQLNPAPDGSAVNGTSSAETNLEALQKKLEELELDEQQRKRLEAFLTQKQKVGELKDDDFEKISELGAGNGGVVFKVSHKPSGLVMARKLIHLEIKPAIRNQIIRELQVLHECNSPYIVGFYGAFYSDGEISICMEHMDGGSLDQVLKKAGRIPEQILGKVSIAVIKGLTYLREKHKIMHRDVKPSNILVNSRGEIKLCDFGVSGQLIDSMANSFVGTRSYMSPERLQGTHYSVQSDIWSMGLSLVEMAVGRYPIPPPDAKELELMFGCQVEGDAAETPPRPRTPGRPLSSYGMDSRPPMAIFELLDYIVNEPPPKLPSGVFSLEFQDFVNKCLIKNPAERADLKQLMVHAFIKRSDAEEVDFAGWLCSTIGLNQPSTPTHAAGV
T1 sequence (P15056 445-723 partner limits assumed): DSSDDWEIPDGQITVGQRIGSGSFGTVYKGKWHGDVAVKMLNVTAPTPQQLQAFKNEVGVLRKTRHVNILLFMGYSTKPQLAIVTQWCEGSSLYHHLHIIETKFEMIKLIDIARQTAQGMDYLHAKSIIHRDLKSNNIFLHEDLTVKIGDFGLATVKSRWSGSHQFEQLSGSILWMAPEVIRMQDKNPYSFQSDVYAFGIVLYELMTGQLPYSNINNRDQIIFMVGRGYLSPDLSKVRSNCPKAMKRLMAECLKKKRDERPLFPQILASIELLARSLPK
Excerpt: (§1) Protein expression and purification: BRAF (445-723) with N-term His-tag and C-term StrepII tag was expressed using the Expi293 system (ThermoFisher) and purified using Strep-Tactin® XT-Superflow (IBA) chromatography. ERK1 (full-length) with N-term His-tag was expressed in Rosetta DE3 cells (Millipore) and purified using HisTrap HP (Cytiva) and Superdex 200 (Cytiva) column chromatography. Full-length MEK1 for TR-FRET assays with N-term His-tag was expressed in BL21DE3 cells (ThermoFisher) and purified using HisTrap HP (Cytiva) and Superdex 200 (Cytiva) column chromatography.
Efficacy of exemplary compounds in inhibition of MEK1 kinase activity: The effect of compound MEK1 inhibition was evaluated using an ADP detection system for kinases, such as the ADP-Glo assay (Promega). The MEK1 kinase cascade assay consisted of 9 μL reaction volumes in 384-well white, opaque Optiplates (PerkinElmer). Compounds were prepared from DMSO stocks in assay buffer (10 mM HEPES pH 7.5, 5 mM MgCl2, 2 mM CHAPS, and 1 mM DTT) and preincubated with 25 nM BRAF for 20 mins at 25° C. prior to addition of 6.25 nM MEK1/0.5 μM ERK/1 mM ATP premix to initiate the kinase reaction. Both BRAF and ERK1 were produced in-house, and MEK1 was purchased from SignalChem (M02-14H). DMSO was kept constant at a final concentration of 1%. After a 1 hr incubation at 25° C., conversion of ATP to ADP was detected using ADP-Glo™ reagents according to the manufacturer's protocol. Luminescence was measured using a CLARIOstar microplate reader (BMG). Percent (%) Inhibition was calculated by normalizing to DMSO control (max) and 1 μM Trametinib (min). % inhibition as a function of compound concentration from 2 replicate wells was fit with a 4-parameter logistic curve equation using GraphPad Prism or CDD Vault to derive IC50 values.
(§2) In this table, for the BRAF ADP Glo kinase assay, “A” indicates IC50 of less than 5 nM; “B” indicates IC50 of between 5 nM to 50 nM; and “C” indicates IC50 of between 50 nM to 500 nM. “D” indicates IC50 of greater than 500 nM. For the BRAF-MEK TR-FRET assay, “A” indicates EC50 of less than 50 nM; “B” indicates EC50 of between 50 nM to 200 nM; and “C” indicates EC50 of between 200 nM to 1 μM. “D′” indicates EC50 of greater than 1 μM. For the AlphaLisa P-ERK assay, “A” indicates IC50 of less than 1 nM; “B” indicates IC50 of between 1 nM to 10 nM; and “C” indicates IC50 of between 10 nM to 100 nM. “D” indicates IC50 of greater than 100 nM. For the cell viability assay, “A” indicates IC50 of less than 1 nM; “B” indicates IC50 of between 1 nM to 10 nM; and “C” indicates IC50 of between 10 nM to 100 nM. “D” indicates IC50 of greater than 100 nM.

BRAF-MEK1 = assay: BRAF-MEK TR-FRET assay, stabilization of MEK1 and BRAF interaction; type: binding; details: 4 nM BRAF, 10 nM MEK, 100 μM ATP, 1 hr at 25° C., read-out: BRAF-MEK TR-FRET Assay (EC50, fold stabilization)
Excerpt: as §1
Efficacy of exemplary compounds in stabilization of MEK1 and BRAF interaction: Compound stabilization of BRAF-MEK interaction was evaluated using TR-FRET (Time Resolved Fluorescence Energy Transfer). The FRET assay consisted of His-tagged MEK1 (produced in-house), GST-tagged BRAF (SignalChem, B08-11G), Anti His-Tb Cryptate donor, and Anti GST-XL665 acceptor fluorophores (PerkinElmer) to generate FRET signal upon BRAF-MEK1 binding. Compounds were prepared from DMSO stocks in assay buffer (50 mM Tris pH 7.5, 150 mM NaCl, 1 mM DTT, 0.05% Tween-20, 5 mM MgCl2, and 100 μM ATP) and incubated with 4 nM BRAF and 10 nM MEK for 1 hr at 25° C. 1 ng Anti His-Tb Cryptate/20 ng Anti GST-XL665 premix was then added and incubated for 1 hr at 25° C. TR-FRET was measured using Cytation5 microplate reader (Agilent) using Ex/Em=340/620 nm and Ex/Em=340/665 nm to determine the FRET ratio. Fold stabilization was calculated as FRET signal of treated well/DMSO control. Fold stabilization as a function of compound concentration from 2 replicate wells was fit with a 4-parameter logistic curve equation using GraphPad Prism or CDD Vault to derive EC50 values.
as §2

| SMILES | IC50 (MEK1) [nM] | EC50 (BRAF-MEK1) [nM] | EC50 (BRAF-MEK1; 60 min) [nM] |
| --- | --- | --- | --- |
| CNS(=O)(=O)Nc1nccc(CN2C(=O)Oc3cc(Oc4cccnn4)cc(F)c3C23COC3)c1F [Compound 178, 5-fluoro-3-{[3-fluoro-2-(methylaminosulfonylamino)-4-pyridyl]methyl}-7-(3-pyridazinyloxy)-2H, 3H-spiro[1,3-benzoxazine-4,3′-oxetan]-2-one] | 5 to 50 | 200 to 1000 |  |
| CNS(=O)(=O)Nc1nccc(CN2C(=O)Oc3cc(Oc4ncco4)c(F)cc3C2C)c1F (single isomer, unassigned) [Compound 186, 6-fluoro-3-{[3-fluoro-2-(methylaminosulfonylamino)-4-pyridyl]methyl}-4-methyl-7-(1,3-oxazol-2-yloxy)-3,4-dihydro-2H-1,3-benzoxazin-2-one] | 50 to 500 |  | 200 to 1000 |
| CN(C)C(=O)Oc1ccc2c(c1)OC(=O)N(Cc1cccc(NS(=O)(=O)N3CC4(COC4)C3)c1F)C2 [Compound 109, 3-(2-fluoro-3-(2-oxa-6-azaspiro[3.3]heptane-6-sulfonamido)benzyl)-2-oxo-3,4-dihydro-2H-benzo[e][1,3]oxazin-7-yl dimethylcarbamate] | 5 to 50 | 200 to 1000 |  |
| CN(C)S(=O)(=O)Nc1cccc(CN2C(=O)Oc3cc(Oc4cccnn4)ccc3C23CCC3)c1F [Compound 25, 3-{[3-(dimethylaminosulfonylamino)-2-fluorophenyl]methyl}-7-(3-pyridazinyloxy)-2H,3H-spiro[1,3-benzoxazine-4,1′-cyclobutan]-2-one] | < 5 | < 50 |  |
| CNS(=O)(=O)Nc1cccc(CN2C(=O)Oc3cc(OC(=O)N(C)C)ccc3C23CNC3)c1F [Compound 49] | 5 to 50 | 200 to 1000 |  |
| O=C1Oc2c(ccc(Oc3cccnn3)c2F)C2(CCC2)N1Cc1ccnc(NS(=O)(=O)C2CC2)c1F [Compound 184, (cyclopropylsulfonyl)[3-fluoro-4-({8-fluoro-2-oxo-7-(3-pyridazinyloxy)-2H,3H-spiro[1,3-benzoxazine-4,1′-cyclobutan]-3-yl}methyl)-2-pyridyl]amine] | 50 to 500 | 50 to 200 |  |
| CNS(=O)(=O)Nc1cccc(CN2Cc3cc(F)c(OC(=O)N(C)C)c(F)c3OC2=O)c1F [Compound 96, 6,8-difluoro-3-(2-fluoro-3-((N-methylsulfamoyl)amino)benzyl)-2-oxo-3,4-dihydro-2H-benzo[e][1,3]oxazin-7-yl dimethylcarbamate] | < 5 | 50 to 200 |  |
| C[C@H]1c2ccc(Oc3cccnn3)c(F)c2OC(=O)N1Cc1cccc(NS(=O)(=O)N(C)C)c1F (single isomer, unassigned) [Compound 44] | < 5 | 200 to 1000 |  |
| CNS(=O)(=O)Nc1cccc(CN2C(=O)Oc3cc(Oc4cccnn4)cnc3C23CC3)c1F [Compound 201, 2′-{[2-fluoro-3-(methylaminosulfonylamino)phenyl]methyl}-6′-(3-pyridazinyloxy)-2′H,3′H-4′-oxa-2′,8′-diazaspiro[cyclopropane-1,1′-naphthalen]-3′-one] | < 5 | < 50 |  |
| CNS(=O)(=O)Nc1cccc(CN2C(=O)Oc3c(ccc(Oc4ncco4)c3F)[C@@H]2C)c1F (single isomer, unassigned) [Compound 89, (S)-8-fluoro-3-({2-fluoro-3-(methylsulfamoyl)amino]phenyl}methyl)-4-methyl-7-(1,3-oxazol-2-yloxy)-3,4-dihydro-2H-1,3-benzoxazin-2-one or (R)-8-fluoro-3-({2-fluoro-3-(methylsulfamoyl)amino]phenyl}methyl)-4-methyl-7-(1,3-oxazol-2-yloxy)-3,4-dihydro-2H-1,3-benzoxazin-2-one] | < 5 | 200 to 1000 |  |
| CNS(=O)(=O)Nc1nccc(CN2C(=O)Oc3cc(Oc4nccnn4)cnc3[C@@H]2C)c1F (stereo in doubt) [Compound 198, 3-{[3-fluoro-2-(methylaminosulfonylamino)-4-pyridyl]methyl}-4-methyl-7-(1,2,4-triazin-3-yloxy)-3,4-dihydro-2H-1-oxa-3,5-diazanaphthalen-2-one] | 5 to 50 |  | < 50 |
| CNS(=O)(=O)Nc1nccc(CN2C(=O)Oc3cc(Oc4cccnn4)ccc3C2(C)C)c1F [Compound 32, 3-({3-fluoro-2-[(methylsulfamoyl)amino]pyridin-4-yl}methyl)-4,4-dimethyl-7-(pyridazin-3-yloxy)-3,4-dihydro-2H-1,3-benzoxazin-2-one] | 5 to 50 | 200 to 1000 |  |
| CNS(=O)(=O)Nc1nccc(CN2C(=O)Oc3cc(Oc4ncccn4)ccc3C23CCC3)c1F [Compound 160, 3-{[3-fluoro-2-(methylaminosulfonylamino)-4-pyridyl]methyl}-7-(2-pyrimidinyloxy)-2H,3H-spiro[1,3-benzoxazine-4,1′-cyclobutan]-2-one] |  | 200 to 1000 |  |
| C[C@H]1c2c(F)cc(Oc3cccnn3)cc2OC(=O)N1Cc1cccc(NS(=O)(=O)C2CC2)c1F (single isomer, unassigned) [Compound 55] | 5 to 50 | 200 to 1000 |  |
| CNS(=O)(=O)Nc1cccc(CN2Cc3cc(Cl)c(OC(=O)C(C)C)cc3OC2=O)c1F [Compound 129, 6-chloro-3-(2-fluoro-3-((N-methylsulfamoyl)amino)benzyl)-2-oxo-3,4-dihydro-2H-benzo[e][1,3]oxazin-7-yl isobutyrate] |  | 200 to 1000 |  |
| CNS(=O)(=O)Nc1cccc(CN2Cc3cc(Cl)c(OC(=O)C4CC4)cc3OC2=O)c1F [Compound 130, 6-chloro-3-(2-fluoro-3-((N-methylsulfamoyl)amino)benzyl)-2-oxo-3,4-dihydro-2H-benzo[e][1,3]oxazin-7-yl cyclopropanecarboxylate] |  | 50 to 200 |  |
| O=C1Oc2cc(Oc3cccnn3)ccc2C2(CCC2)N1Cc1ccnc(NS(=O)(=O)C2CC2)c1F [Compound 163, (cyclopropylsulfonyl)[3-fluoro-4-({2-oxo-7-(3-pyridazinyloxy)-2H,3H-spiro[1,3-benzoxazine-4,1′-cyclobutan]-3-yl}methyl)-2-pyridyl]amine] |  | 200 to 1000 |  |
| CNS(=O)(=O)Nc1nccc(CN2C(=O)Oc3cc(Oc4nccnn4)cnc3[C@@H]2C)c1F (stereo in doubt) [Compound 199, 3-{[3-fluoro-2-(methylaminosulfonylamino)-4-pyridyl]methyl}-4-methyl-7-(1,2,4-triazin-3-yloxy)-3,4-dihydro-2H-1-oxa-3,5-diazanaphthalen-2-one] |  |  | 50 to 200 |
